This is an account of results in paper PMC7450492 (Molecular cancer therapeutics, 2020).

Converted amounts (≈) assume the structure as drawn. “Also recorded” adds a separate entry of the source.

The subject of one series is LLC tumor. As to the kind of experiment: LLC tumor with macrophage depletion by anti-CSF1R. The series is classed as in vivo, mouse. Particulars: macrophage depleted mice.
The next series is described as follows: solubility in water. It counts as physicochemical.
The target of a further series is Syk (Homo sapiens, UniProt P43405). As to the kind of experiment: cell free enzymatic inhibition of Syk. It counts as biochemical. The settings on record: read-out: Syk inhibitory activity IC50; cell free system.
Another series is described as follows: metabolic stability. The series is classed as in vitro ADME.
Series [1] concerns LLC tumors. Briefly: LLC tumors in Syk^MC-KO mice. It counts as in vivo, mouse.
Series [2] in a line: PK in mice, i.v. and oral. The series is classed as in vivo, mouse. Particulars: prototype formulation, preliminary.
In the next series the test system is T cells. As to the kind of experiment: T cell proliferation ex vivo. It counts as cell-based, mouse.
The subject of series [3] is LLC tumors. As to the kind of experiment: LLC syngeneic tumor in WT mice. The series is classed as in vivo. The settings on record: for infiltration of CD8+ T cells in LLC tumors: treated LLC tumors.
For series [4], the system named is immunosuppressive gene expression in MΦ. Briefly: immunosuppressive MΦ polarization, gene expression. It counts as cell-based. Particulars: very low dose, compared to IPI-549 or R488 alone.
The next series has as its system CT26 tumor. As to the kind of experiment: CT26 tumor in NSG or Balb/c mice. It counts as in vivo, mouse.
Another series has as its system p-AKT. As to the kind of experiment: p-AKT blockade. The series is classed as cell-based. The settings on record: 10 µM conc.
The subject of series [5] is PI3K isoforms p110α, p110β, p110γ and p110δ. As to the kind of experiment: cell free enzymatic inhibition of PI3K isoforms. It counts as biochemical. The settings on record: in vitro.
For another series, the system named is B16-OVA tumor. Briefly: B16-OVA tumor in C57BL/6 mice. The series is classed as in vivo, mouse.
Another series deals with LLC cells. As to the kind of experiment: viability of LLC cells. The series is classed as cell-based, mouse.

For the compound `Cc1nn(-c2ccnc(Nc3ccc(-c4csc5c(=O)cc(N6CCOCC6)oc45)cc3)n2)cc1CN1CCC1` [SRX3207], in the series with LLC tumor, the “LLC tumor growth, combination with anti-CSF1R (CD115) antibody” value is given as “no additive effects”. Also, the solubility in water in the series “solubility in water” was 43 µM (≈ 23.9 µg/mL). Further, at Syk, the IC50 (as a rule, the midpoint of a concentration-inhibition curve) amounted to 30 nM. Further, the CLint in “metabolic stability” stood at 74 µL/min/mg protein. For the same compound, the “LLC tumor growth in Syk^MC-KO mice” value in the series on LLC tumors [1] is given as “significantly decreased”. The half-life entry in [2] (5mg/kg IV and 15 mg/kg PO) was “about 5 hours”. Moreover, the bioavailability entry in [2] (oral 15 mg/kg PO vs 5mg/kg IV) is given as “around 2%”. Also, the T cell proliferation entry in the series on T cells is recorded as “didn’t affect”. Also, the “toxicity in tumor-bearing mice” value with LLC tumors [3] (10 mg/kg dose) is reported as “without toxicity”. Besides, the “LLC tumor growth and survival” value in the series on LLC tumors [3] (10 mg/kg oral, WT mice, compared to IPI549 and R788 at similar doses) is “blocked tumor growth and increased survival effectively”. The “infiltration of CD8+ T cells in LLC tumors” value with LLC tumors [3] is recorded as “increased infiltration”. Besides, the immunosuppressive gene expression entry in series [4] is “potently blocks”. In the series on CT26 tumor (Balb/c mice), the “CT26 tumor growth in Balb/c mice” value was “blocked tumor growth”. In the series with CT26 tumor (NSG mice), the “CT26 tumor growth in NSG mice” value is “didn’t block”. Also, the p-AKT blockade entry in the series with p-AKT is listed as “able to block”. Also, in series [5], the PI3K inhibitory potency entry is listed as “acceptable PI3K inhibitory properties”.
In the case of `C[C@H](NC(=O)c1c(N)nn2cccnc12)c1cc2cccc(C#Cc3cnn(C)c3)c2c(=O)n1-c1ccccc1` [IPI549], the “LLC tumor growth in Syk^MC-KO mice” value in the series with LLC tumors [1] is “significantly decreased”.
With `COc1cc(Nc2ncc(F)c(Nc3ccc4c(n3)N(COP(=O)(O)O)C(=O)C(C)(C)O4)n2)cc(OC)c1OC` [R788, Fostamatinib], the “LLC tumor growth, combination with anti-CSF1R (CD115) antibody” value with LLC tumor is recorded as “no additive effects”. Moreover, the “OVA specific CD8+ T cells in tumor draining lymph nodes” value in the series on B16-OVA tumor (B16-OVA, H-2K^b SIINFEKL tetramers) is reported as “increased”. In addition, in the series with B16-OVA tumor (C57BL/6 mice, R788 40 mg/kg, anti-PDL1 200µg, 40 mg/kg), the B16-OVA tumor growth entry is “significantly blocked tumor growth; also recorded: substantially inhibited”. Further, the “LLC tumor growth in Syk^MC-KO mice” value in the series on LLC tumors [1] was “didn’t show additive reduction”. In the series with T cells, the T cell proliferation entry is given as “no effect”. The “tumor growth and metastasis” value with LLC tumors [3] (LLC, WT mice, 40 mg/kg R788 orally, vs vehicle) is recorded as “significantly suppressed”. In addition, in the series with LLC tumors [3], the “infiltration of CD8+ T cells in LLC tumors” value is given as “increased infiltration”. Besides, in the series on LLC cells, the “viability of LLC cells” value is “no effect”.
